{
  "source": "the supplement of paper PMC10307832",
  "assay_in_all_cases": "relative viability (nuclei count vs DMSO), 5 days (fraction); higher = more cells survive",
  "key": {"NCI-H1651": {"tested_on": "NCI-H1651", "how_it_was_run": "(§1)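 Dosing by pin tool came one day after lung cancer cell lines were seeded in 1536-well plates, using either one drug or a fixed anchor-drug dose plus five library-drug doses (not always all listed) in √10 steps. After 5 days, nuclei were counted on 4× images. Relative viability is treated-well nuclei count divided by vehicle-well nuclei count, and values are medians of duplicate plates.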"}, "NCI-H661": {"tested_on": "NCI-H661", "how_it_was_run": "as §1"}, "NCI-H2228": {"tested_on": "NCI-H2228", "how_it_was_run": "as §1"}, "NCI-H2347": {"tested_on": "NCI-H2347", "how_it_was_run": "as §1"}, "NCI-H647": {"tested_on": "NCI-H647", "how_it_was_run": "as §1"}, "NCI-H2085": {"tested_on": "NCI-H2085", "how_it_was_run": "as §1"}, "HCC-44": {"tested_on": "HCC-44", "how_it_was_run": "as §1"}, "LC-2-ad": {"tested_on": "LC-2-ad", "how_it_was_run": "as §1"}, "COR-L23": {"tested_on": "COR-L23", "how_it_was_run": "as §1"}, "NCI-H2170": {"tested_on": "NCI-H2170", "how_it_was_run": "as §1"}, "NCI-H1395": {"tested_on": "NCI-H1395", "how_it_was_run": "as §1"}, "HOP-62": {"tested_on": "HOP-62", "how_it_was_run": "as §1"}, "NCI-H838": {"tested_on": "NCI-H838", "how_it_was_run": "as §1"}, "NCI-H1355": {"tested_on": "NCI-H1355", "how_it_was_run": "as §1"}, "CAL-12T": {"tested_on": "CAL-12T", "how_it_was_run": "as §1"}, "NCI-H23": {"tested_on": "NCI-H23", "how_it_was_run": "as §1"}, "NCI-H1993": {"tested_on": "NCI-H1993", "how_it_was_run": "as §1"}, "NCI-H520": {"tested_on": "NCI-H520", "how_it_was_run": "as §1"}, "NCI-H1666": {"tested_on": "NCI-H1666", "how_it_was_run": "as §1"}, "201T": {"tested_on": "201T", "how_it_was_run": "as §1"}, "LCLC-103H": {"tested_on": "LCLC-103H", "how_it_was_run": "as §1"}, "NCI-H322M": {"tested_on": "NCI-H322M", "how_it_was_run": "as §1"}},
  "data": [
    {"smiles": "Cc1cnc(-c2cnc(NCCNc3ccc(C#N)cn3)nc2-c2ccc(Cl)cc2Cl)[nH]1", "note": "+ CC(=O)Nc1cccc(-n2c(=O)n(C3CC3)c(=O)c3c(Nc4ccc(I)cc4F)n(C)c(=O)c(C)c32)c1 [Trametinib] (partner 0.02 µM)", "values": [
      {"measurement": "relative viability", "setting": "NCI-H1651; first compound 0.08 µM", "result": 0.855},
      {"measurement": "relative viability", "setting": "NCI-H1651; first compound 0.253 µM", "result": 0.706},
      {"measurement": "relative viability", "setting": "NCI-H1651; first compound 0.8 µM", "result": 0.74},
      {"measurement": "relative viability", "setting": "NCI-H1651; first compound 2.53 µM", "result": 0.864},
      {"measurement": "relative viability", "setting": "NCI-H661; first compound 0.08 µM", "result": 0.606},
      {"measurement": "relative viability", "setting": "NCI-H661; first compound 0.253 µM", "result": 0.537},
      {"measurement": "relative viability", "setting": "NCI-H661; first compound 0.8 µM", "result": 0.68},
      {"measurement": "relative viability", "setting": "NCI-H661; first compound 2.53 µM", "result": 0.681},
      {"measurement": "relative viability", "setting": "NCI-H2228; first compound 0.08 µM", "result": 0.526},
      {"measurement": "relative viability", "setting": "NCI-H2228; first compound 0.253 µM", "result": 0.511},
      {"measurement": "relative viability", "setting": "NCI-H2228; first compound 0.8 µM", "result": 0.506},
      {"measurement": "relative viability", "setting": "NCI-H2228; first compound 2.53 µM", "result": 0.42},
      {"measurement": "relative viability", "setting": "NCI-H2347; first compound 0.08 µM", "result": 0.296},
      {"measurement": "relative viability", "setting": "NCI-H2347; first compound 0.253 µM", "result": 0.272},
      {"measurement": "relative viability", "setting": "NCI-H2347; first compound 0.8 µM", "result": 0.297},
      {"measurement": "relative viability", "setting": "NCI-H2347; first compound 2.53 µM", "result": 0.287},
      {"measurement": "relative viability", "setting": "NCI-H647; first compound 0.08 µM", "result": 0.606},
      {"measurement": "relative viability", "setting": "NCI-H647; first compound 0.253 µM", "result": 0.401},
      {"measurement": "relative viability", "setting": "NCI-H647; first compound 0.8 µM", "result": 0.498},
      {"measurement": "relative viability", "setting": "NCI-H647; first compound 2.53 µM", "result": 0.601},
      {"measurement": "relative viability", "setting": "NCI-H2085; first compound 0.08 µM", "result": 0.596},
      {"measurement": "relative viability", "setting": "NCI-H2085; first compound 0.253 µM", "result": 0.524},
      {"measurement": "relative viability", "setting": "NCI-H2085; first compound 0.8 µM", "result": 0.52},
      {"measurement": "relative viability", "setting": "NCI-H2085; first compound 2.53 µM", "result": 0.604},
      {"measurement": "relative viability", "setting": "HCC-44; first compound 0.08 µM", "result": 1.13},
      {"measurement": "relative viability", "setting": "HCC-44; first compound 0.253 µM", "result": 1.02},
      {"measurement": "relative viability", "setting": "HCC-44; first compound 0.8 µM", "result": 1.01},
      {"measurement": "relative viability", "setting": "HCC-44; first compound 2.53 µM", "result": 1.04},
      {"measurement": "relative viability", "setting": "LC-2-ad; first compound 0.08 µM", "result": 0.998},
      {"measurement": "relative viability", "setting": "LC-2-ad; first compound 0.8 µM", "result": 0.953},
      {"measurement": "relative viability", "setting": "LC-2-ad; first compound 2.53 µM", "result": 0.863},
      {"measurement": "relative viability", "setting": "COR-L23; first compound 0.08 µM", "result": 0.763},
      {"measurement": "relative viability", "setting": "COR-L23; first compound 0.253 µM", "result": 0.565},
      {"measurement": "relative viability", "setting": "COR-L23; first compound 0.8 µM", "result": 0.642},
      {"measurement": "relative viability", "setting": "COR-L23; first compound 2.53 µM", "result": 0.585},
      {"measurement": "relative viability", "setting": "NCI-H2170; first compound 0.08 µM", "result": 1.02},
      {"measurement": "relative viability", "setting": "NCI-H2170; first compound 0.8 µM", "result": 0.929},
      {"measurement": "relative viability", "setting": "NCI-H2170; first compound 2.53 µM", "result": 0.788},
      {"measurement": "relative viability", "setting": "NCI-H1395; first compound 0.08 µM", "result": 1.22},
      {"measurement": "relative viability", "setting": "NCI-H1395; first compound 0.253 µM", "result": 0.715},
      {"measurement": "relative viability", "setting": "NCI-H1395; first compound 0.8 µM", "result": 1.03},
      {"measurement": "relative viability", "setting": "NCI-H1395; first compound 2.53 µM", "result": 0.924},
      {"measurement": "relative viability", "setting": "HOP-62; first compound 0.08 µM", "result": 0.401},
      {"measurement": "relative viability", "setting": "HOP-62; first compound 0.253 µM", "result": 0.375},
      {"measurement": "relative viability", "setting": "HOP-62; first compound 0.8 µM", "result": 0.426},
      {"measurement": "relative viability", "setting": "HOP-62; first compound 2.53 µM", "result": 0.426},
      {"measurement": "relative viability", "setting": "NCI-H838; first compound 0.08 µM", "result": 0.577},
      {"measurement": "relative viability", "setting": "NCI-H838; first compound 0.253 µM", "result": 0.499},
      {"measurement": "relative viability", "setting": "NCI-H838; first compound 0.8 µM", "result": 0.591},
      {"measurement": "relative viability", "setting": "NCI-H838; first compound 2.53 µM", "result": 0.685},
      {"measurement": "relative viability", "setting": "NCI-H1355; first compound 0.08 µM", "result": 0.396},
      {"measurement": "relative viability", "setting": "NCI-H1355; first compound 0.253 µM", "result": 0.384},
      {"measurement": "relative viability", "setting": "NCI-H1355; first compound 0.8 µM", "result": 0.41},
      {"measurement": "relative viability", "setting": "NCI-H1355; first compound 2.53 µM", "result": 0.409},
      {"measurement": "relative viability", "setting": "CAL-12T; first compound 0.08 µM", "result": 0.357},
      {"measurement": "relative viability", "setting": "CAL-12T; first compound 0.253 µM", "result": 0.306},
      {"measurement": "relative viability", "setting": "CAL-12T; first compound 0.8 µM", "result": 0.333},
      {"measurement": "relative viability", "setting": "CAL-12T; first compound 2.53 µM", "result": 0.348},
      {"measurement": "relative viability", "setting": "NCI-H23; first compound 0.08 µM", "result": 0.412},
      {"measurement": "relative viability", "setting": "NCI-H23; first compound 0.253 µM", "result": 0.339},
      {"measurement": "relative viability", "setting": "NCI-H23; first compound 0.8 µM", "result": 0.451},
      {"measurement": "relative viability", "setting": "NCI-H23; first compound 2.53 µM", "result": 0.882},
      {"measurement": "relative viability", "setting": "NCI-H1993; first compound 0.08 µM", "result": 0.506},
      {"measurement": "relative viability", "setting": "NCI-H1993; first compound 0.253 µM", "result": 0.536},
      {"measurement": "relative viability", "setting": "NCI-H1993; first compound 0.8 µM", "result": 0.454},
      {"measurement": "relative viability", "setting": "NCI-H1993; first compound 2.53 µM", "result": 0.52},
      {"measurement": "relative viability", "setting": "NCI-H520; first compound 0.08 µM", "result": 0.781},
      {"measurement": "relative viability", "setting": "NCI-H520; first compound 0.253 µM", "result": 0.614},
      {"measurement": "relative viability", "setting": "NCI-H520; first compound 0.8 µM", "result": 0.788},
      {"measurement": "relative viability", "setting": "NCI-H520; first compound 2.53 µM", "result": 0.706},
      {"measurement": "relative viability", "setting": "NCI-H1666; first compound 0.08 µM", "result": 0.864},
      {"measurement": "relative viability", "setting": "NCI-H1666; first compound 0.253 µM", "result": 0.797},
      {"measurement": "relative viability", "setting": "NCI-H1666; first compound 0.8 µM", "result": 0.957},
      {"measurement": "relative viability", "setting": "NCI-H1666; first compound 2.53 µM", "result": 0.821},
      {"measurement": "relative viability", "setting": "201T; first compound 0.08 µM", "result": 0.746},
      {"measurement": "relative viability", "setting": "201T; first compound 0.8 µM", "result": 0.707},
      {"measurement": "relative viability", "setting": "201T; first compound 2.53 µM", "result": 0.753},
      {"measurement": "relative viability", "setting": "LCLC-103H; first compound 0.08 µM", "result": 0.686},
      {"measurement": "relative viability", "setting": "LCLC-103H; first compound 0.253 µM", "result": 0.676},
      {"measurement": "relative viability", "setting": "LCLC-103H; first compound 0.8 µM", "result": 0.631},
      {"measurement": "relative viability", "setting": "LCLC-103H; first compound 2.53 µM", "result": 0.671},
      {"measurement": "relative viability", "setting": "NCI-H322M; first compound 0.08 µM", "result": 0.563},
      {"measurement": "relative viability", "setting": "NCI-H322M; first compound 0.253 µM", "result": 0.558},
      {"measurement": "relative viability", "setting": "NCI-H322M; first compound 0.8 µM", "result": 0.468},
      {"measurement": "relative viability", "setting": "NCI-H322M; first compound 2.53 µM", "result": 0.516}
    ]}
  ]
}
